Experimental data: patent US9370570B2, “Polychlorinated biphenyls and squalene-containing adjuvants” (priority 2007, dated 2016)

experiment: levels of seven dioxins and ten furans in squalene samples, as TEQs; details: WHO 2005 TEFs; + = 1,2,3,4,6,7,8-HpCDD
Experimental: In addition to measuring PCB content, levels of seven dioxins and ten furans were measured. […] TEQs from PCBs, dioxins and furans for these samples were as follows, measured in pg/g according to WHO 2005 TEFs: […]

Compound | TEQ from Dioxins
CC(C)=CCCC(C)=CCCC(C)=CCCC=C(C)CCC=C(C)CCC=C(C)C [squalene, 2,6,10,15,19,23-hexamethyl-2,6,10,14,18,22-tetracosahexaene] | 28.158 ^+ pg/g

experiment: not given; details: WHO 2005 TEF values for PCBs in humans; fraction of the toxicity of 2,3,7,8-TCDD dioxin (reference value 1); cited from earlier work

Compound | TEF (toxic equivalency factor)
Clc1cc2c(cc1Cl)Oc1cc(Cl)c(Cl)cc1O2 [2,3,7,8-TCDD, reference compound] | 1
Clc1ccc(-c2ccc(Cl)c(Cl)c2)cc1Cl [PCB #77, 3,3′,4,4′-tetrachlorobiphenyl] | 0.0001
Clc1ccc(-c2cc(Cl)c(Cl)c(Cl)c2)cc1 [PCB #81, 3,4,4′,5-tetrachlorobiphenyl] | 0.0003
Clc1ccc(-c2ccc(Cl)c(Cl)c2Cl)cc1Cl [PCB #105] | 0.00003
Clc1ccc(-c2cc(Cl)c(Cl)c(Cl)c2Cl)cc1 [PCB #114] | 0.00003
Clc1ccc(-c2cc(Cl)c(Cl)cc2Cl)cc1Cl [PCB #118] | 0.00003
Clc1ccc(-c2cc(Cl)c(Cl)c(Cl)c2)c(Cl)c1 [PCB #123] | 0.00003
Clc1ccc(-c2cc(Cl)c(Cl)c(Cl)c2)cc1Cl [PCB #126, 3,3′,4,4′,5-pentachlorobiphenyl] | 0.1
Clc1ccc(-c2cc(Cl)c(Cl)c(Cl)c2Cl)cc1Cl [PCB #156] | 0.00003
Clc1cc(-c2ccc(Cl)c(Cl)c2Cl)cc(Cl)c1Cl [PCB #157] | 0.00003
Clc1cc(Cl)c(-c2cc(Cl)c(Cl)c(Cl)c2)cc1Cl [PCB #167] | 0.00003
Clc1cc(-c2cc(Cl)c(Cl)c(Cl)c2)cc(Cl)c1Cl [PCB #169, 3′,4,4′,5,5′-hexachlorobiphenyl] | 0.03
Clc1cc(Cl)c(-c2cc(Cl)c(Cl)c(Cl)c2Cl)cc1Cl [PCB #180] | 0.00001
Clc1cc(-c2cc(Cl)c(Cl)c(Cl)c2Cl)cc(Cl)c1Cl [PCB #189] | 0.00003
